Measurements published in US20260130851A1, “PLINABULIN MICELLE COMPOSITION AND PREPARATION METHOD THEREFOR” (priority 2022, published 2026).
Values after ≈ are worked out from the molar mass of the structure shown. Read-outs that look alike come from different tables or passages of the source.

Test: Equilibrium solubility of Plinabulin in propylene glycol-D5W diluents (HPLC)
Format: physicochemical
Conditions: for Control Group - Absolute Ethanol Test Concentration: 25° C.
Description: Corresponding propylene glycol-D5W injections were prepared. The preparation process was as follows: • Diluent 1 (corresponding to a dilution ratio of 1:20). Weigh about 6 g of propylene glycol, place it in a beaker, add 200 ml of D5W injection, and mix well. • Diluent 2 (corresponding to a dilution ratio of 1:30). Weigh about 4 g of propylene glycol, place it in a beaker, add 200 ml of D5W injection, and mix well. • Diluent 3 (corresponding to a dilution ratio of 1:50): Weigh about 2.4 g of propylene glycol, place it in a beaker, add 200 ml of D5W injection, and mix well.
Acceptance criteria: The concentration of Plinabulin in each solution was determined until there was no significant difference between two consecutive determinations, i.e., equilibrium solubility.
Test solutions were taken at different time points, filtered through a 0.45 μm glass fiber membrane, and injected into the high-performance liquid chromatography system. The equilibrium solubility of Plinabulin in solutions with different ratios at various time points was calculated by the external standard method.

For CC(C)(C)c1[nH]cnc1/C=c1\[nH]c(=O)/c(=C/c2ccccc2)[nH]c1=O [Plinabulin, (3Z,6Z)-3-[(5-tert-butyl-1H-imidazol-4-yl)methylene]-6-(phenylmethylene)-2,5-piperazinedione], the “Control Group - Absolute Ethanol Test Concentration” value (“Control Group” below) (Test Sample 1 (49.5 h), Diluent 1 (about 6 g propylene glycol + 200 ml D5W, 1:20), 100 rpm) was 0.152 µg/mL, the “Control Group” value (Test Sample 2 (48.5 h), Diluent 2 (about 4 g propylene glycol + 200 ml D5W, 1:30), 100 rpm) was 0.125 µg/mL and the “Control Group” value (Test Sample 3 (49 h), Diluent 3 (about 2.4 g propylene glycol + 200 ml D5W, 1:50), 100 rpm) was 0.113 µg/mL. For the same molecule, the solubility thermodynamic at 49.5 h (propylene glycol-D5W diluent, 25 °C, saline or isotonic, thermodynamic from solid, Test Sample 1 (1:20) dilution level, 49.5 h, read-out: Test Concentration (equilibrium solubility)) was 0.152 µg/mL (≈ 0.452 µM), the solubility thermodynamic at 72 h (propylene glycol-D5W diluent, 25 °C, saline or isotonic, thermodynamic from solid, Test Sample 1 (1:20) dilution level, 72 h, read-out: Test Concentration (equilibrium solubility)) was 0.145 µg/mL (≈ 0.431 µM) and the solubility thermodynamic at 94 h (propylene glycol-D5W diluent, 25 °C, saline or isotonic, thermodynamic from solid, Test Sample 1 (1:20) dilution level, 94 h, read-out: Test Concentration (equilibrium solubility)) was 0.143 µg/mL (≈ 0.425 µM). The solubility thermodynamic at 49.5 h (propylene glycol-D5W diluent, 25 °C, saline or isotonic, thermodynamic from solid, Test Sample 1 (49.5 h), Diluent 1 (about 6 g propylene glycol + 200 ml D5W, 1:20), 100 rpm, read-out: Control Group - Diluent Test Concentration) was 0.155 µg/mL, the solubility thermodynamic at 48.5 h (propylene glycol-D5W diluent, 25 °C, saline or isotonic, thermodynamic from solid, Test Sample 2 (1:30) dilution level, 48.5 h, read-out: Test Concentration (equilibrium solubility)) was 0.125 µg/mL (≈ 0.372 µM) and the solubility thermodynamic at 73 h (propylene glycol-D5W diluent, 25 °C, saline or isotonic, thermodynamic from solid, Test Sample 2 (1:30) dilution level, 73 h, read-out: Test Concentration (equilibrium solubility)) was 0.112 µg/mL (≈ 0.333 µM). It also gave a solubility thermodynamic at 94.5 h (propylene glycol-D5W diluent, 25 °C, saline or isotonic, thermodynamic from solid, Test Sample 2 (1:30) dilution level, 94.5 h, read-out: Test Concentration (equilibrium solubility)) of 0.113 µg/mL (≈ 0.336 µM), a solubility thermodynamic at 48.5 h (propylene glycol-D5W diluent, 25 °C, saline or isotonic, thermodynamic from solid, Test Sample 2 (48.5 h), Diluent 2 (about 4 g propylene glycol + 200 ml D5W, 1:30), 100 rpm, read-out: Control Group - Diluent Test Concentration) of 0.13 µg/mL and a solubility thermodynamic at 49 h (propylene glycol-D5W diluent, 25 °C, saline or isotonic, thermodynamic from solid, Test Sample 3 (1:50) dilution level, 49 h, read-out: Test Concentration (equilibrium solubility)) of 0.113 µg/mL (≈ 0.336 µM). For the same molecule, the solubility thermodynamic at 73.5 h (propylene glycol-D5W diluent, 25 °C, saline or isotonic, thermodynamic from solid, Test Sample 3 (1:50) dilution level, 73.5 h, read-out: Test Concentration (equilibrium solubility)) was 0.095 µg/mL (≈ 0.282 µM), the solubility thermodynamic at 96 h (propylene glycol-D5W diluent, 25 °C, saline or isotonic, thermodynamic from solid, Test Sample 3 (1:50) dilution level, 96 h, read-out: Test Concentration (equilibrium solubility)) was 0.134 µg/mL (≈ 0.398 µM) and the solubility thermodynamic at 120 h (propylene glycol-D5W diluent, 25 °C, saline or isotonic, thermodynamic from solid, Test Sample 3 (1:50) dilution level, 120 h, read-out: Test Concentration (equilibrium solubility)) was 0.135 µg/mL (≈ 0.401 µM). The solubility thermodynamic at 49 h (propylene glycol-D5W diluent, 25 °C, saline or isotonic, thermodynamic from solid, Test Sample 3 (49 h), Diluent 3 (about 2.4 g propylene glycol + 200 ml D5W, 1:50), 100 rpm, read-out: Control Group - Diluent Test Concentration) was 0.117 µg/mL.
